These are literature values, as cited in patent US20250288613A1, “COMPOSITIONS AND METHODS TARGETING SAT1 FOR ENHANCING ANTI-TUMOR IMMUNITY DURING TUMOR PROGRESSION” (THE BRIGHAM AND WOMEN’S HOSPITAL, INC., priority 2022, published 2025).

The series concerns the target human spermidine/spermine acetyltransferase (SSAT) (Homo sapiens, UniProt P21673). The note with it: competitive inhibition; spermidine as substrate.

Sequence of human spermidine/spermine acetyltransferase (SSAT) (P21673 whole entry): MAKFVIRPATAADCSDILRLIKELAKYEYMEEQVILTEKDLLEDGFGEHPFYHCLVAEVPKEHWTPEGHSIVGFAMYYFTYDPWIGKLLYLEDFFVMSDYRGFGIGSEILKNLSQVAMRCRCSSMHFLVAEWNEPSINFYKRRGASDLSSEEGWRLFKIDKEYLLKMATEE

Consider `N=C(N)c1ccc(/N=N/Nc2ccc(C(=N)N)cc2)cc1` [berenil, 4,4′-(1-Triazene-1,3-diyl)bis(benzenecarboximidamide)], for which the inhibition constant (Ki) is 2000 nM.

In the case of `N=C(N)c1ccc(OCCCCCOc2ccc(C(=N)N)cc2)cc1` [Pentamidine], the inhibition constant Ki is 2400 nM.
